Results reported in patent US4994376A, “Detection of bacteroides gingivalis” (priority 1987, dated 1991).
Read-outs that look alike come from different tables or passages of the source. Peptide text beside a SMILES is read from it. * marks the point of attachment. βNA = c1ccc2cc(N*)ccc2c1

Columns and labels:
Type in all cases: biochemical
Veillonella alcalesens = assay: Aminopeptidase activity on β-naphthylamide substrates; settings: strain ATCC 11748; β-naphthylamine liberated after 60 minutes, 37° C.
Outline: (§1)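 Chromogenic assay using N-CBz-glycyl-glycyl-L-arginine-β-naphthylamide, incubated 1 hour at 37° C. Liberated β-naphthylamine is coupled with Fast Garnet GBC (0.5 mg/ml) in 1M acetic acid pH 4.2 with 10% Tween 20 for 15 min at room temperature, then read at 525 nm.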

A. seminis = settings: strain ATCC 15768; β-naphthylamine liberated after 60 minutes, 37° C.
Outline: as §1

Actinomyces israeli = settings: β-naphthylamine liberated after 60 minutes, 37° C.
Outline: as §1

Campylobacter sputorum = settings: strain Ba1-21; β-naphthylamine liberated after 60 minutes, 37° C.
Outline: as §1

V. parvula = settings: strain ATCC 10790; β-naphthylamine liberated after 60 minutes, 37° C.
Outline: as §1

Eikenella corrodens = settings: strain BP1-6; β-naphthylamine liberated after 60 minutes, 37° C.
Outline: as §1

Structure (SMILES)	Aminopeptidase activity (Veillonella alcalesens)	Aminopeptidase activity (A. seminis)	Aminopeptidase activity (Actinomyces israeli; strain ATCC 12103)	Aminopeptidase activity (Actinomyces israeli; strain DK2-3)	Aminopeptidase activity (Campylobacter sputorum)	Aminopeptidase activity (V. parvula)	Aminopeptidase activity (Eikenella corrodens)
CSCCC(N)C(=O)Nc1ccc2ccccc2c1 (racemic)	0 nmol	0 nmol	12 nmol	33 nmol	0 nmol	0 nmol	3 nmol
C[C@H](N)C(=O)N[C@@H](C)C(=O)N[C@@H](Cc1ccccc1)C(=O)Nc1ccc2ccccc2c1 [Ala-Ala-Phe] (H-Ala-Ala-Phe-βNA)	1 nmol	0 nmol	3 nmol	0 nmol	0 nmol	0 nmol	0 nmol
CC(C)C[C@H](N)C(=O)NCC(=O)O [Leu-Gly, Leucyl-glycine] (H-Leu-Gly-OH)		0 nmol	0 nmol	0 nmol	0 nmol	0 nmol	0 nmol
CC(C)C[C@H](NC(=O)[C@@H]1CCCN1C(=O)CN)C(=O)Nc1ccc2ccccc2c1 [Gly-Pro-Leu] (H-Gly-Pro-Leu-βNA)	0 nmol	0 nmol	0 nmol	0 nmol	2 nmol	0 nmol	0 nmol
Cl.N=C(N)NCCC[C@H](NC(=O)CNC(=O)CNC(=O)OCc1ccccc1)C(=O)Nc1ccc2ccccc2c1 [N-CBz-Gly-Gly-Arg, N-carbobenzoxy-glycyl-glycyl-L-arginine-β-naphthylamide hydrochloride]	0 nmol	1 nmol	0 nmol	0 nmol	0 nmol	0 nmol	0 nmol
NC(=O)[C@@H](N)CCC(=O)O [α-Glu, α -glutamine]	0 nmol	0 nmol	0 nmol	0 nmol	1 nmol	0 nmol	0 nmol
